Experimental data reported in ChEMBL document CHEMBL1156829 (Proc Natl Acad Sci U S A, 2008).

Assays:
Plasmodium falciparum [1] = assay: NOVARTIS: Inhibition of Plasmodium falciparum 3D7 (drug-susceptible) proliferation in erythrocyte-based infection assay; type: functional, organism-based; conditions: Plasmodium falciparum, 3D7
Plasmodium falciparum [2] = assay: NOVARTIS: Inhibition of Plasmodium falciparum W2 (drug-resistant) proliferation in erythrocyte-based infection assay; type: functional, organism-based; conditions: Plasmodium falciparum, W2; read-out: EC50
[3] = NOVARTIS: Cytotoxicity against human hepatocellular carcinoma cell line (Huh7); type: toxicity, cell-based, Huh-7; conditions: Huh7 cells (hepatocellular carcinoma cell line)

Structure (SMILES) | EC50 (Plasmodium falciparum [1]) [nM] | EC50 (Plasmodium falciparum [2]) [nM] | CC50 [3] [µM]
CCCn1nc(NS(C)(=O)=O)c2cc3cccc(C)c3nc21 | > 9100 | 2020 | > 100
FC(F)(F)c1cccc(NC(=S)N2CCSC2c2ccc(Br)cc2)c1 (stereo not drawn) | 217 | 116 | 43.3
COc1cc(C)c(CCNCCCCCCNCCc2cc(OC)c(OC)cc2C)cc1OC | 230 | > 880 | > 10
O=C(O)c1ccc(S(=O)(=O)c2ccc3c(c2)C(=O)N(c2ccc(Sc4ccc([N+](=O)[O-])cc4)cc2)C3=O)cc1 | > 1250 | 2070 | > 10
CCCCOC(=O)C1=C(C)NC2=C(C(=O)CCC2)C1c1ccc(Cl)c(Cl)c1 (stereo not drawn) | 574 | 359 | > 100
CCOc1ccc2nc(C)cc(Nc3ccc(N(C)C)cc3)c2c1 | 344 | 662 | 16.6
OCCSc1nc(-c2ccccc2)nc2ccc(F)cc12 | > 1250 | > 183 | > 10
CC1CC(C)CN(CCCNc2ccc(C(=O)Nc3ccc(C(F)(F)F)cc3)cc2[N+](=O)[O-])C1 (stereo not drawn) | 119 | 401 | > 100
CC(=O)N(C1=C(N2CCOCC2)C(=O)c2ccccc2C1=O)c1ccc(C(C)C)c(C)c1 | 25.6 | 88.1 | 9.15
CSc1cccc(NC(=O)C2C3C=CC4(O3)C2C(=O)N(Cc2ccc(F)cc2)C4C(=O)NC2CCCC(C)C2C)c1 (stereo not drawn) | 1430 | 875 | > 100
Cc1cc(C)[n+]2nc(N)c3ccccc3c2n1.[O-][Cl+3]([O-])([O-])[O-] | 248 | 193 | > 10
OC1=C2C(=Nc3ccccc3SC2c2ccccc2)c2ccccc21 (stereo not drawn) | 46.7 | 112 | 27.1
N#Cc1nc(-c2ccccc2)c(-c2ccc(-c3nc(C#N)c(C#N)nc3-c3ccccc3)cc2)nc1C#N | 1610 | 1160 | > 10
Cc1c(C(=O)NCCN2CCCC2)cnn1-c1ncc2c(n1)-c1ccccc1SC2 | 525 | < 14.3 | > 10
CCN(CC)CCCN(Cc1cc2cc(OC)ccc2[nH]c1=O)C(=S)Nc1ccc(C)cc1 | 3410 | 2020 | 33
O=C(Nc1ccc(-c2nc3cc(NC(=O)c4cccs4)ccc3[nH]2)cc1)c1cccs1 | 1550 | 2010 | > 100
CCOc1ccccc1-n1c(C(C)N(CCc2ccccc2)C(=O)c2ccc(Br)cc2)nc2ccccc2c1=O (stereo not drawn) | > 1250 | 834 | > 10
Cc1c(C#N)c2ccccc2n1CC(=O)NCCc1ccccc1 | 398 | 411 | > 100
CCN1/C(=C/c2sc3ccc(OC)cc3[n+]2CC)C=Cc2cc(C)ccc21 | 431 | 508 | > 10
Cc1ccc2c(C)nc(Nc3nc(C)cc(-c4ccccc4)n3)nc2c1 | 975 | 569 | > 100
COc1cc2c(OC3OCC(OC)C(OC)C3O)c3c(c(-c4ccc5c(c4)OCO5)c2cc1OC)C(=O)OC3 (stereo not drawn) | 81.7 | 28.3 | > 10
COC(=O)c1cnn(-c2ccccc2)c1C=NOC(=O)c1ccccc1 | > 5290 | 2380 | > 100

Structure (SMILES) | EC50 (Plasmodium falciparum [1]) [nM] | EC50 (Plasmodium falciparum [2]) [nM] | CC50 [3] [µM]
CC(=O)N(C1=C(N(C)C)C(=O)c2ccccc2C1=O)c1cc(C)cc(C)c1 | 23 | 41.5 | 2.23
S=P(OCC1C(COP(=S)(c2ccccc2)c2ccccc2)C1(Cl)Cl)(c1ccccc1)c1ccccc1 (stereo not drawn) | 385 | 484 | > 100
O=C(NC1CC1)C1CCN(c2cccc3c2C(=O)N(C2CCCCCCC2)C3=O)CC1 | 203 | 169 | > 51.8
C=CC1CN2CCC1CC2[C@@H](OC(=O)c1ccc(OC)cc1)c1ccnc2ccccc12 (stereo partly drawn) | 309 | 509 | 87.1
CCOC(=O)C1CCCN(C(=O)c2c(C)oc3c2C(=O)c2ccccc2C3=O)C1 (stereo not drawn) | 171 | 163 | 20.4
CC=C[C@H]1O[C@@](O)([C@@H](C)C(O)C(C)[C@H]2OC(=O)C(OC)=CC(C)=C[C@@H](C)[C@@H](O)[C@@H](C)[C@@H](O)C(C)CC(C)=CC=C[C@@H]2OC)C[C@@H](O[C@H]2C[C@@H](O)[C@H](OC(N)=O)[C@@H](C)O2)[C@@H]1C (stereo partly drawn) | > 1670 | 240 | > 10
CC(/C=C/C(=O)NO)=C\[C@@H](C)C(=O)c1ccc(N(C)C)cc1 [TRICHOSTATIN] | 200 | 171 | 1.59
COCCN(CC(=O)NCc1ccc(OC2CCN(CC(c3ccccc3)c3ccccc3)CC2)cc1)S(=O)(=O)c1ccccc1 | 1000 | 526 | > 10
O=C(C1CCN(c2cccc3c2C(=O)N(C2CC2)C3=O)CC1)N1CCC(O)(c2ccc(Cl)cc2)CC1 | > 1250 | > 1020 | > 10
COc1ccc(C2(CNCC(O)c3cccc([N+](=O)[O-])c3)CCCC2)cc1OC (stereo not drawn) | 490 | 52.5 | > 100
CC1CCCCN1CCCNCc1ccc(OCc2ccccc2)cc1 (stereo not drawn) | 385 | 298 | 4.65
CCN(CC)CCCN(Cc1cc2c(C)cc(C)cc2[nH]c1=O)C(=S)NCCCN(C)C | 2090 | 1000 | > 100
CC1=NOC(=O)/C1=C/c1ccc(-c2ccc([N+](=O)[O-])cc2)o1 | > 1250 | > 865 | > 10
CC(C)(C)c1ncccc1OC(=O)C12CC3CC(CC(C3)C1)C2 | 349 | > 1470 | > 10
CCCCc1c(CCC)c(=N)c2ccccc2n1C | 311 | 422 | 71.9
COc1ccc(-n2c(SC)nc3sc4c(c3c2=O)CCN(Cc2ccccc2)C4)cc1 | 2480 | 2550 | > 100
Cc1ccc(/C=C/c2ccc3ccccc3[n+]2C)cc1 | 131 | 217 | > 10
COc1ccc2c(c1OC)C(=O)N1c3ccccc3N=C(c3ccc(I)cc3)CC21 (stereo not drawn) | 416 | 223 | > 100
CC(CC(=O)Oc1ccccc1-c1nc2ccccn2c1NC(C)(C)CC(C)(C)C)CC(C)(C)C (stereo not drawn) | 242 | 34.2 | 0.796
Cn1nccc1C(OCC(=O)N1CCOCC1)c1ccc(F)cc1 (stereo not drawn) | 134 | 89.2 | > 10
COc1cc(O)c2c(=O)cc(CCOC(=O)Nc3ccccc3)[nH]c2c1 | > 905 | > 1250 | > 10
Cc1cc(C)n(CC(O)Cn2c3ccc(Cl)cc3c3cc(Cl)ccc32)n1 (stereo not drawn) | 1010 | 342 | 45.5

Structure (SMILES) | EC50 (Plasmodium falciparum [1]) [nM] | EC50 (Plasmodium falciparum [2]) [nM] | CC50 [3] [µM]
CC(=O)Nc1ccc(S(=O)(=O)N2CCC(c3nc(-c4cccnc4)no3)CC2)cc1 | > 9640 | 736 | > 100
CCC(C)(C#CCN1CCCC1)OC(C)=O (stereo not drawn) | > 1050 | > 1250 | > 10
CCOCCCNc1nc2cc(OC)c(OC)cc2c2nc(-c3ccccc3)nn12 | 83.1 | 56.3 | > 100
CC(C)OCCCNc1sc(S(=O)(=O)c2ccccc2)nc1S(=O)(=O)c1ccc(Cl)cc1 | 94.1 | 58.1 | > 100
Oc1ccc(Cl)cc1CNc1nc2ccccc2[nH]1 | 921 | 768 | 43.5
COc1ccc(C2Nc3ccc4ccccc4c3C3=C2C(=O)CC(C)(C)C3)cc1Br (stereo not drawn) | 3190 | 649 | > 100
COC(=O)C1=C(C)NC(=Cc2cc(C)n(-c3ccc(Cl)c(Cl)c3)c2C)C1=O | 6900 | 6320 | > 100
CCOC(=O)c1c(CN2CCN(CC#N)CC2)n(Cc2ccccc2)c2cc(Br)c(O)cc12 | 1180 | 884 | > 100
CCOc1ccc(-c2c[n+](-c3ccccc3)c3n2CCS3)cc1 | 421 | 228 | > 100
COc1ccc(NC(=O)Cn2ncc3ccccc32)cc1OC | > 1250 | 984 | > 100
COC(=O)C1CCCCN1S(=O)(=O)c1ccc(C)cc1 (stereo not drawn) | > 1250 | > 1120 | > 10
CCOC(=O)c1c(N)n(-c2ccc(NC(=O)c3cccc([N+](=O)[O-])c3)cc2)c2nc3ccccc3nc12 | 320 | 1740 | 19.4
CCN1C=CC(=Cc2ccc3cc(C)ccc3[n+]2C)C=C1 | 170 | 140 | > 58
COc1cc(CNc2ccc(N3CCCCC3)cc2)cc(Cl)c1OCc1ccc(F)cc1 | 3040 | 1540 | > 100
CCCC(C(=O)NC(C)(C)C)N1C(=O)c2cc(NC(C)=O)ccc2NC(=O)[C@@H]1c1ccccc1 (stereo partly drawn) | > 65.6 | > 790 | 5.45
COc1ccc(C(OCCS(=O)(=O)CCO)(c2ccccc2)c2ccc(OC)cc2)cc1 | 70.3 | 48.9 | 51.6
CN(C)c1cccc(Nc2cc(-c3ccc(CC(N)C(=O)O)cc3)nc3ccnn23)c1 (stereo not drawn) | 600 | 594 | > 10
Cc1ccc2[nH]c(/C(C#N)=C/c3cn(Cc4ccc(Cl)cc4Cl)nc3-c3ccccc3)nc2c1 | > 1010 | 1880 | > 10
CCC1=[N+](C)c2cccc3cccc(c23)N1C | 958 | 739 | > 100
Cc1ccc(C(=O)N(CCc2ccccc2)C(C)c2nc3ccccc3c(=O)n2-c2cccc(Cl)c2C)cc1[N+](=O)[O-] (stereo not drawn) | > 1620 | 887 | > 10
CCOc1ccc(/C=C(/C#N)c2nc3ccccc3[nH]2)cc1OC | 1500 | 405 | > 10
COc1ccc(N2C(N)=NC(N)=NC2(C)C)cc1 | 13.8 | > 1250 | > 10
